Measurements: patent publication US20060063759A1, “Tricyclic steroid hormone nuclear receptor modulators” (priority 2002, published 2006)
pKi: −log10 of the molar value.

Columns and labels:
[1] = molecular target: T1, glucocorticoid receptor (Homo sapiens, UniProt P04150); assay: Glucocorticoid Receptor Binding Assay ([3H]-dexamethasone, A549 cell extract); conditions: [3H]-dexamethasone binding, read-out: GR Ki
T1 construct: containing 50-200 ug of A549 cell extract and 1.86 nM [^3H]-dexamethasone; host or cells: A549 human lung epithelial cells (sonicated cell extract)
T1 sequence (P04150 1-777): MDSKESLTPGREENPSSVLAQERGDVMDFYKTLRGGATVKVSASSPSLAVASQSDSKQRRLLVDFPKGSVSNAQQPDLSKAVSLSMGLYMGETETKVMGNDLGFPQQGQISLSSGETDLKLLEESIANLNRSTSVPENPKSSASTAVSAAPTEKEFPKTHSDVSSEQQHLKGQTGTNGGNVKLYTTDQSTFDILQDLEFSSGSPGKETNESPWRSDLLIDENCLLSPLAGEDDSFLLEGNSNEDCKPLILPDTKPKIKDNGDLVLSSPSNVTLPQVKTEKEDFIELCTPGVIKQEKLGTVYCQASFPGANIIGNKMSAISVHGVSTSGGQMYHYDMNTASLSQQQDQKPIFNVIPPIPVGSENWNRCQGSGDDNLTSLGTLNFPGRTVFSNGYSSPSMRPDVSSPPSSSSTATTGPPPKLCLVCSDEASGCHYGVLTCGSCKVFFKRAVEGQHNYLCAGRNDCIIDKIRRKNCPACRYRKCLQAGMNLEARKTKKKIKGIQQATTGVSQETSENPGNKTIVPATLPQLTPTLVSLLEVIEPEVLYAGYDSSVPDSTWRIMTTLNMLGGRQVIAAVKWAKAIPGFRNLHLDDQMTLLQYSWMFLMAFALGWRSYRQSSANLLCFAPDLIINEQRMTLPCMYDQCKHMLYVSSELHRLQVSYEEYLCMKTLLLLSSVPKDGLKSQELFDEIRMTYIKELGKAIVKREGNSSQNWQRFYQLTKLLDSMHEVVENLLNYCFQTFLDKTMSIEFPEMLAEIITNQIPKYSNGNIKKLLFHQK
In short: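 A549 cell extract (50–200 ug) incubated with 1.86 nM [3H]-dexamethasone and test compound for 16 h at 4 °C in Tris-HCl pH 7.2 buffer with glycerol and molybdate. Unbound radioligand removed by dextran-coated charcoal, then supernatant bound counts measured by scintillation.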

[2] = molecular target: T2, human MR (Homo sapiens, UniProt P08235); assay: Mineralocorticoid Receptor Binding Assay ([3H]-aldosterone); conditions: [3H]-aldosterone binding, human MR expressed in Sf9 cells; read-out: MR Ki
T2 construct: The full length human MR gene is cloned from a human kidney or human brain cDNA library; His tag from the pAcHLT vector (own knowledge); made in house; host or cells: Sf9 insect cells (baculovirus, pAcHLT transfer vector)
T2 sequence (P08235 1-984): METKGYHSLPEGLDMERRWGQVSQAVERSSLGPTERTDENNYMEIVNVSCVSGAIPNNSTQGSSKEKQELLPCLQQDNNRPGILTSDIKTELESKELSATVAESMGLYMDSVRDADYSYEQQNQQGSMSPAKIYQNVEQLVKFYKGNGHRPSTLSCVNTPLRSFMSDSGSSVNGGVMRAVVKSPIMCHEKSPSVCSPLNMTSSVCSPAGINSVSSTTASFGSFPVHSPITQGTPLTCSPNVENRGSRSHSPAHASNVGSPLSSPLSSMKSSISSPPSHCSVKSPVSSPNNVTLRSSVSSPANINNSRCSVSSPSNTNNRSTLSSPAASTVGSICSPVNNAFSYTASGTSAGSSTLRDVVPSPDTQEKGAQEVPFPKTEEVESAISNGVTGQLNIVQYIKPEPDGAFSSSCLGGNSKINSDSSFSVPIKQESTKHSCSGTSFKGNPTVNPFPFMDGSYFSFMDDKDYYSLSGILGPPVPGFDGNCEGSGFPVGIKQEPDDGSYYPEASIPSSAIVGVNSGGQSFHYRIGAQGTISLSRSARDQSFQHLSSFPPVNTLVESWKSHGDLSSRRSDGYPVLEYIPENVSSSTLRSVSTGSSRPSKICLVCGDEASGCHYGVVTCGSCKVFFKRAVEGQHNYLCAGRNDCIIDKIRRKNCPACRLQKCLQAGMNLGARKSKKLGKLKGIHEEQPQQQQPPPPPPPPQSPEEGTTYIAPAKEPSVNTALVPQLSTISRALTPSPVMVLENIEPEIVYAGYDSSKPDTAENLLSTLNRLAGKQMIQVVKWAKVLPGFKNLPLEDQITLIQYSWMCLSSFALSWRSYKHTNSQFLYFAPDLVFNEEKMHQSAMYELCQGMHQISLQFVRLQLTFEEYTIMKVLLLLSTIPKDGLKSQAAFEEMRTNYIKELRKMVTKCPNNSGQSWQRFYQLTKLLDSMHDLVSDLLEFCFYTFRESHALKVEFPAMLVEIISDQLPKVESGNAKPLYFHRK
In short: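 Lysate supernatant of Sf9 cells expressing full-length human MR (20-25 μg protein) was incubated with 0.5 nM [3H]-aldosterone and test compound in molybdate/Tris/phosphate/glycerol buffer, pH 7.5, ~16 h at 4 °C. Bound ligand was filtered and counted by scintillation; IC50 is the concentration halving [3H]-aldosterone binding.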

For `O/N=C/c1cccc(C=C2c3ccccc3CCc3ccccc32)c1` [Example 78, 3-(10,11-Dihydro-dibenzo[a,d]cyclohepten-5-ylidenemethyl)-benzaldehyde oxime], the pKi [1] was > 6.00 and the pKi [2] was > 6.30.

With `Cc1cccc(CC2c3ccccc3CCc3ccccc32)c1` [Example 133, 5-(3-Methyl-benzyl)-10,11-dihydro-5H-dibenzo[a,d]cycloheptene] the pKi [1] was > 6.00 and the pKi [2] was > 6.30.

`CC(C)Cn1c(=O)[nH]c2cc(/C=C3\c4ccccc4COc4cc(F)ccc43)ccc21` [Example 710] was tested, and the pKi [1] was > 6.30 and the pKi [2] was > 6.30.

In the case of `C(=C1c2ccccc2CCc2ccccc21)c1cn[nH]c1` [Example 237, 4-(10,11-Dihydro-dibenzo[a,d]cyclohepten-5-ylidenemethyl)-1H-pyrazole], the pKi [1] was > 5.00 and the pKi [2] was > 6.30.

With `CS(=O)(=O)Nc1cccc(/C=C2\c3ccccc3CCc3c2cccc3C(F)F)c1` [Example 382] the pKi [1] was > 6.30 and the pKi [2] was > 6.30.

`COc1ccc2c(c1)CCc1ccccc1[C@@H]2Cc1cccc(NS(C)(=O)=O)c1` [Example 351] was tested, and the pKi [1] was > 6.30 and the pKi [2] was > 6.30.

In the case of `N#Cc1ccc(C=C2c3ccccc3CCc3ccccc32)cc1` [Example 82, 4-(10,11-Dihydro-dibenzo[a,d]cyclohepten-5-ylidenemethyl)-benzonitrile], the pKi [1] was > 6.00 and the pKi [2] was > 6.30.

With `CS(=O)(=O)Nc1cccc(/C=C2/c3ccccc3CCc3cc(-c4ccccc4)ccc32)c1` [Example 306] the pKi [1] was > 6.00 and the pKi [2] was > 6.30.

`CS(=O)(=O)Nc1cccc(/C=C2/c3ccccc3CCc3cc(N)ccc32)c1` [Example 408] was tested, and the pKi [1] was > 6.30 and the pKi [2] was > 6.30.

`O=c1[nH]c2ccc(/C=C3\c4ccccc4COc4cc(C(F)(F)F)ccc43)cc2[nH]1` [Example 643] was tested, and the pKi [1] was > 5.00 and the pKi [2] was > 6.30.

With `C/C(=C1\c2ccccc2COc2ccc(F)cc21)c1cccc(NS(C)(=O)=O)c1` [Example 789] the pKi [1] was > 6.30 and the pKi [2] was > 6.30.

`Nc1n[nH]c2cc(C=C3c4ccc(F)cc4CCc4cc(F)ccc43)ccc12` [Example 460] was tested, and the pKi [1] was > 6.00 and the pKi [2] was > 6.30.

In the case of `O=c1[nH]c2ccc(/C=C3/c4ccccc4CCc4cccc(Cl)c43)cc2[nH]1` [Example 465], the pKi [1] was > 6.00 and the pKi [2] was > 6.30.

With `O=C(Nc1cccc(/C=C2/c3ccccc3CCc3cc(Cl)ccc32)c1)C(F)(F)F` [Example 414] the pKi [1] was > 6.30 and the pKi [2] was > 6.30.

With `CC(C)Cn1c(=O)[nH]c2cc(/C=C3/c4ccccc4COc4cc(F)ccc43)ccc21` [Example 711] the pKi [1] was > 6.00 and the pKi [2] was > 6.30.

In the case of `Nc1cccc(C=C2c3ccc(F)cc3CCc3cc(F)ccc32)c1` [Example 384], the pKi [1] was > 6.30 and the pKi [2] was > 6.30.

With `O=C(CO)c1cccc(C=C2c3ccccc3CCc3cc(Cl)ccc32)c1` [Example 298] the pKi [1] was > 5.00 and the pKi [2] was > 6.30.

With `CS(=O)(=O)Nc1ccc(C=C2c3ccccc3CCc3cc(Cl)ccc32)cc1` [Example 395] the pKi [1] was > 5.00 and the pKi [2] was > 6.30.

`Oc1cccc(C=C2c3ccccc3CCc3c2ccc(Cl)c3Cl)c1` [198(a), 3-(1,2-Dichloro-10,11-dihydro-dibenzo[a,d]cyclohepten-5-ylidenemethyl)-phenol] was tested, and the pKi [1] was > 6.30 and the pKi [2] was > 6.30.

With `Oc1cccc(/C=C2/c3ccccc3CCc3c(Br)cccc32)c1` [Example 371] the pKi [1] was > 6.30 and the pKi [2] was > 6.30.

For `Cn1c(=O)[nH]c2cc(/C=C3/c4ccccc4CCc4cc(F)ccc43)ccc21` [Example 461], the pKi [1] was > 6.30 and the pKi [2] was > 6.30.

With `COc1ccc2c(c1)CCc1cc(C)ccc1/C2=C(\C)c1cccc(NS(C)(=O)=O)c1` [Example 829] the pKi [1] was > 6.30 and the pKi [2] was > 6.30.

`CS(=O)(=O)Nc1cccc(/C=C2\c3ccccc3CSc3cc(Cl)ccc32)c1` [Example 742] was tested, and the pKi [1] was > 6.30 and the pKi [2] was > 6.30.

In the case of `Cc1cccc(C=C2c3ccccc3CCc3cc(Cl)ccc32)c1` [Example 177, 2-Chloro-5-(3-methyl-benzylidene)-10,11-dihydro-5H-dibenzo[a,d]cycloheptene], the pKi [1] was > 6.00 and the pKi [2] was > 6.30.
